In US20230167127A1, “COMPOUNDS AND THEIR USE IN THE TREATMENT OF BACTERIAL INFECTION” (Hoffmann-La Roche Inc., priority 2020, published 2023):
Counter-ions that a name gives are not always drawn.

Each compound was assayed on Escherichia coli ATCC 25922 (assay: 50% growth inhibitory concentration (IC50) determination, Iso-Sensitest broth dilution). Settings: Escherichia coli, ATCC25922, 16 h, strain Escherichia coli ATCC 25922; 10-point broth dilution, optical density at 600 nm over 16 h; read-out: Escherichia coli growth inhibition IC50.
Format: cell-based
Summary of the method: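 Growth was tracked as optical density at 600 nm every 20 minutes for 16 h at 35±2° C. Compounds from DMSO stocks were serially diluted twofold over 10 points (e.g. 50–0.097 μM final) in Iso-Sensitest broth. Inhibition computed in log-phase growth to give IC50.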
`N#Cc1cccc2c1CC(N[C@H]1C[C@@H](C3CN(c4ccc5c(n4)NC(=O)CO5)C(=O)O3)C1)C2` (stereo partly drawn) [Example 19, 2-[[cis-3-[2-oxo-3-(3-oxo-4H-pyrido[3,2-b][1,4]oxazin-6-yl)-1,3-oxazolidin-5-yl]cyclobutyl]amino]-2,3-dihydro-1H-indene-4-carbonitrile; formic acid] showed an IC50 of 449 nM.
For `CNC(=O)COc1cc(F)c2c(c1)CC(CNCCC1CN(c3ccc4c(n3)NC(=O)CO4)C(=O)O1)C2` (stereo not drawn) [Example 69, 2-[[7-fluoro-2-[[2-[2-oxo-3-(3-oxo-4H-pyrido[3,2-b][1,4]oxazin-6-yl)-1,3-oxazolidin-5-yl]ethylamino]methyl]-2,3-dihydro-1H-inden-5-yl]oxy]-N-methylacetamide; formic acid], the IC50 was 123 nM.
In the case of `NCCOc1ccc2c(c1Cl)CC(CNCCC1CN(c3ccc4c(n3)NC(=O)CO4)C(=O)O1)C2` (stereo not drawn) [Example 116, 6-[5-[2-[[5-(2-Aminoethoxy)-4-chloro-2,3-dihydro-1H-inden-2-yl]methylamino]ethyl]-2-oxo-1,3-oxazolidin-3-yl]-4H-pyrido[3,2-b][1,4]oxazin-3-one], the IC50 is reported as less than 97.7 nM.
Compound `NC(=O)COc1ccc2c(c1F)CC(CNCCC1CN(c3cnc4c(n3)NC(=O)CO4)C(=O)O1)C2` (stereo not drawn) [Example 413, 2-[[4-fluoro-2-[[2-[2-oxo-3-(3-oxo-4H-pyrazino[2,3-b][1,4]oxazin-6-yl)-1,3-oxazolidin-5-yl]ethylamino]methyl]-2,3-dihydro-1H-inden-5-yl]oxy]acetamide] has an IC50 of less than 97.7 nM.
With `Cc1nnc(C)c2c1CC(CNCCC1CN(c3ccc4c(n3)NC(=O)CS4)C(=O)O1)C2` (stereo not drawn) [Example 285, 5-[2-[(1,4-dimethyl-6,7-dihydro-5H-cyclopenta[d]pyridazin-6-yl)methylamino]ethyl]-3-(3-oxo-4H-pyrido[3,2-b][1,4]thiazin-6-yl)-1,3-oxazolidin-2-one] the IC50 was 925 nM.
`NC(=O)COc1cc(F)c2c(c1)CC(CNCC[C@H]1CN(c3cnc4c(n3)NC(=O)CO4)C(=O)O1)C2` (single isomer, unassigned; isomer a) [Example 379] gave an IC50 of less than 97.7 nM.
For `Cc1nnc(C)c2c1CC(CNCCC1CN(c3cnc4c(n3)NC(=O)CO4)C(=O)O1)C2` (stereo not drawn) [Example 283, 6-[5-[2-[(1,4-dimethyl-6,7-dihydro-5H-cyclopenta[d]pyridazin-6-yl)methylamino]ethyl]-2-oxo-1,3-oxazolidin-3-yl]-4H-pyrazino[2,3-b][1,4]oxazin-3-one], the IC50 was 888 nM.
With `O=C1COc2ccc(N3CC(CCNCC4Cc5cccc(F)c5C4)OC3=O)nc2N1` (stereo not drawn) [Example 91, 6-[5-[2-[(4-fluoro-2,3-dihydro-1H-inden-2-yl)methylamino]ethyl]-2-oxo-1,3-oxazolidin-3-yl]-4H-pyrido[3,2-b][1,4]oxazin-3-one] the IC50 was less than 97.7 nM.
`N#Cc1nccc2c1CC(NCCCC1CN(c3ccc4c(n3)NC(=O)CO4)C(=O)O1)C2` (stereo not drawn) [Example 95, 6-[3-[2-oxo-3-(3-oxo-4H-pyrido[3,2-b][1,4]oxazin-6-yl)-1,3-oxazolidin-5-yl]propylamino]-6,7-dihydro-5H-cyclopenta[c]pyridine-1-carbonitrile] gave an IC50 of 232 nM.
`N#Cc1cccc2c1CC(N[C@H]1CC[C@H](C3CN(c4ccc5c(n4)NC(=O)CO5)C(=O)O3)CC1)C2` (stereo partly drawn) [Example 34, 2-[[trans-4-[2-oxo-3-(3-oxo-4H-pyrido[3,2-b][1,4]oxazin-6-yl)-1,3-oxazolidin-5-yl]cyclohexyl]amino]-2,3-dihydro-1H-indene-4-carbonitrile; formic acid] gave an IC50 of 1660 nM.
Compound `Cc1cnc(C)c2c1CC(CNCCC1CN(c3ccc4c(n3)NC(=O)CO4)C(=O)O1)C2` (stereo not drawn) [Example 98, 6-[5-[2-[(1,4-dimethyl-6,7-dihydro-5H-cyclopenta[c]pyridin-6-yl)methylamino]ethyl]-2-oxo-1,3-oxazolidin-3-yl]-4H-pyrido[3,2-b][1,4]oxazin-3-one] has an IC50 of less than 97.7 nM.
`NC1(COc2cc(Cl)c3c(c2)CC(CNCCC2CN(c4ccc5c(n4)NC(=O)CO5)C(=O)O2)C3)CC1` (stereo not drawn) [Example 178, 6-[5-[2-[[6-[(1-aminocyclopropyl)methoxy]-4-chloro-2,3-dihydro-1H-inden-2-yl]methylamino]ethyl]-2-oxo-1,3-oxazolidin-3-yl]-4H-pyrido[3,2-b][1,4]oxazin-3-one] showed an IC50 of less than 97.7 nM.
In the case of `N#Cc1cc(OCC2(N)CC2)cc2c1CC(CCN1CC3(C1)CN(c1ccc4c(n1)NC(=O)CO4)C(=O)O3)C2` (stereo not drawn) [Example 197, 6-((1-aminocyclopropyl)methoxy)-2-(2-(6-oxo-7-(3-oxo-3,4-dihydro-2H-pyrido[3,2-b][1,4]oxazin-6-yl)-5-oxa-2,7-diazaspiro[3.4]octan-2-yl)ethyl)-2,3-dihydro-1H-indene-4-carbonitrile], the IC50 is reported as less than 97.7 nM.
With `CNC(=O)COc1cc(C)c2c(c1C#N)CC(CNCCC1CN(c3cnc4c(n3)NC(=O)CO4)C(=O)O1)C2` (stereo not drawn) [Example 384, 2-[[4-cyano-7-methyl-2-[[2-[2-oxo-3-(3-oxo-4H-pyrazino[2,3-b][1,4]oxazin-6-yl)-1,3-oxazolidin-5-yl]ethylamino]methyl]-2,3-dihydro-1H-inden-5-yl]oxy]-N-methylacetamide] the IC50 was 167 nM.
With `N#Cc1cccc2c1CC(CN1CCC3(CC1)CN(c1ccc4c(n1)NC(=O)CO4)C(=O)O3)C2` (stereo not drawn) [Example 28, 2-[ [2-oxo-3-(3-oxo-4H-pyrido[3,2-b] [1,4]oxazin-6-yl)-1-oxa-3,8-diazaspiro[4.5]decan-8-yl]methyl]-2,3-dihydro-1H-indene-4-carbonitrile] the IC50 was less than 97.7 nM.
In the case of `NC1c2cccc(Cl)c2CC1CNCCC1CN(c2ccc3c(n2)NC(=O)CS3)C(=O)O1` (racemic) [Example 246, 5-[2-[(rac-1,2-trans-1-amino-4-chloro-2,3-dihydro-1H-inden-2-yl)methylamino]ethyl]-3-(3-oxo-4H-pyrido[3,2-b][1,4]thiazin-6-yl)-1,3-oxazolidin-2-one], the IC50 is reported as less than 97.7 nM.
In the case of `O=C1COc2ncc(N3CC(CCNCC4Cc5cccc(Cl)c5C4)OC3=O)nc2N1` (stereo not drawn) [Example 281, 6-[5-[2-[(4-Chloro-2,3-dihydro-1H-inden-2-yl)methylamino]ethyl]-2-oxo-1,3-oxazolidin-3-yl]-4H-pyrazino[2,3-b][1,4]oxazin-3-one], the IC50 is reported as less than 97.7 nM.
`O=C1COc2ccc(N3CC(CCNC4Cc5cccc(Cl)c5C4)OC3=O)nc2N1` (stereo not drawn) [Example 3, 6-[5-[2-[(4-chloro-2,3-dihydro-1H-inden-2-yl)amino]ethyl]-2-oxo-1,3-oxazolidin-3-yl]-4H-pyrido[3,2-b][1,4]oxazin-3-one hydrochloride] was tested, and the IC50 was 940 nM.
`Cc1ncc(F)c2c1CC(CNCCc1cn(-c3cnc4c(n3)NC(=O)CO4)c(=O)o1)C2` (stereo not drawn) [Example 293, 6-[5-[2-[(4-fluoro-1-methyl-6,7-dihydro-5H-cyclopenta[c]pyridin-6-yl)methylamino]ethyl]-2-oxo-1,3-oxazol-3-yl]-4H-pyrazino[2,3-b][1,4]oxazin-3-one] gave an IC50 of less than 97.7 nM.

Same assay, conditions: strain Escherichia coli ATCC 25922; 10-point broth dilution, optical density at 600 nm over 16 h; read-out: Escherichia coli growth inhibition IC50
Work on `O=C1COc2ccc(N3CC(CCNCC4Cc5c(Cl)cccc5C4O)OC3=O)nc2N1` (racemic) [Example 231, 6-[2-Oxo-5-[2-[[rac-1,2-cis-4-chloro-1-hydroxy-2,3-dihydro-1H-inden-2-yl]methylamino]ethyl]-1,3-oxazolidin-3-yl]-4H-pyrido[3,2-b][1,4]oxazin-3-one] yielded an IC50 of 176 nM.
For `NC(=O)COc1cc(F)c2c(c1)CC(CNCC[C@H]1CN(c3cnc4c(n3)NC(=O)CO4)C(=O)O1)C2` (single isomer, unassigned; isomer b) [Example 380], the IC50 was less than 97.7 nM.
